Results reported in patent US8148391B2 (Cephalon, Inc., priority 2006, dated 2012).
Where two headings read alike, the source gives them in different places. Blank lines part the entries; values can stand above or below the molecule they belong to.

Assays:
[1] = target: T1, baculovirus-expressed ALK (Homo sapiens, UniProt Q9UM73); test: ALK Kinase Assay (ELISA-type, time-resolved fluorescence); type: biochemical
T1 construct: host or cells: baculovirus expression system
Summary of the method: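 Wells were coated with phospholipase C-γ at 10 μg/mL in Tris-buffered saline. Adding 30 ng/ml enzyme started the reaction, which ran at 37° C for 15 minutes before Eu-N1 PT66 antibody detection. Percent inhibition versus log10 concentration gave IC50 by variable-slope fit.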

[2] = target: T2, c-Met (cytoplasmic domain) (Homo sapiens, UniProt P08581); test: c-Met Kinase Assay (same methods as for ALK, with modifications); type: biochemical
T2 construct: 10 ng/mL c-Met (cytoplasmic domain, Invitrogen Corporation #PV3143); purchased Invitrogen Corporation PV3143
Summary of the method: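 IC50 values were fitted by variable-slope sigmoidal regression of percent inhibition against log compound concentration. Phosphorylation was read with Eu-N1 PT66 antibody after a 15 min, 37 °C reaction. The reaction was initiated with 10 ng/mL c-Met cytoplasmic domain on wells coated with 10 μg/mL PLC-γ in TBS.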

[3] = 1 μM ATP (Km level), 30 ng/ml ALK, 37° C., 15 minutes, read-out: ALK Activity (ALK kinase inhibition, IC50 class)
[4] = 1 μM ATP (Km level), 10 ng/mL c-Met, read-out: cMet Activity (c-Met kinase inhibition, IC50 class)
[5] = 1 μM ATP (Km level), read-out: ALK Activity (ALK Kinase Inhibition, IC50)
[6] = 1 μM ATP (Km level), read-out: cMet Activity (c-Met Kinase Inhibition, IC50)
[7] = ALK kinase inhibition, 1 μM ATP, read-out: ALK Activity
[8] = c-Met kinase inhibition, 1 μM ATP, read-out: cMet Activity
[9] = ALK kinase inhibition, 1 μM ATP (Km level), read-out: ALK Activity
[10] = c-Met kinase inhibition, 1 μM ATP (Km level), read-out: cMet Activity

T2 sequence (P08581 956-1390 limits assumed): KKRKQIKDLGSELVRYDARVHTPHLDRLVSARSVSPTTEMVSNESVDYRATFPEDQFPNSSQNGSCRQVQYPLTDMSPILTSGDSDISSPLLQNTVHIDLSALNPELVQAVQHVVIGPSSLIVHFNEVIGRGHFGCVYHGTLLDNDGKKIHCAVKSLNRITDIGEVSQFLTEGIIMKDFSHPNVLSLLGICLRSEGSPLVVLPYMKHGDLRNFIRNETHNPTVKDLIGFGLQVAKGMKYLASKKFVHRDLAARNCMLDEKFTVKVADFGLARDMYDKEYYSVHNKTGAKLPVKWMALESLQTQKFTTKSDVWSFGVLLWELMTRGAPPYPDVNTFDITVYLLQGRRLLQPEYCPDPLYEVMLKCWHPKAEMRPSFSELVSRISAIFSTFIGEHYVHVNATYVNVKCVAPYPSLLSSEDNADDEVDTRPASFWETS
T1 sequence (Q9UM73 19-1620): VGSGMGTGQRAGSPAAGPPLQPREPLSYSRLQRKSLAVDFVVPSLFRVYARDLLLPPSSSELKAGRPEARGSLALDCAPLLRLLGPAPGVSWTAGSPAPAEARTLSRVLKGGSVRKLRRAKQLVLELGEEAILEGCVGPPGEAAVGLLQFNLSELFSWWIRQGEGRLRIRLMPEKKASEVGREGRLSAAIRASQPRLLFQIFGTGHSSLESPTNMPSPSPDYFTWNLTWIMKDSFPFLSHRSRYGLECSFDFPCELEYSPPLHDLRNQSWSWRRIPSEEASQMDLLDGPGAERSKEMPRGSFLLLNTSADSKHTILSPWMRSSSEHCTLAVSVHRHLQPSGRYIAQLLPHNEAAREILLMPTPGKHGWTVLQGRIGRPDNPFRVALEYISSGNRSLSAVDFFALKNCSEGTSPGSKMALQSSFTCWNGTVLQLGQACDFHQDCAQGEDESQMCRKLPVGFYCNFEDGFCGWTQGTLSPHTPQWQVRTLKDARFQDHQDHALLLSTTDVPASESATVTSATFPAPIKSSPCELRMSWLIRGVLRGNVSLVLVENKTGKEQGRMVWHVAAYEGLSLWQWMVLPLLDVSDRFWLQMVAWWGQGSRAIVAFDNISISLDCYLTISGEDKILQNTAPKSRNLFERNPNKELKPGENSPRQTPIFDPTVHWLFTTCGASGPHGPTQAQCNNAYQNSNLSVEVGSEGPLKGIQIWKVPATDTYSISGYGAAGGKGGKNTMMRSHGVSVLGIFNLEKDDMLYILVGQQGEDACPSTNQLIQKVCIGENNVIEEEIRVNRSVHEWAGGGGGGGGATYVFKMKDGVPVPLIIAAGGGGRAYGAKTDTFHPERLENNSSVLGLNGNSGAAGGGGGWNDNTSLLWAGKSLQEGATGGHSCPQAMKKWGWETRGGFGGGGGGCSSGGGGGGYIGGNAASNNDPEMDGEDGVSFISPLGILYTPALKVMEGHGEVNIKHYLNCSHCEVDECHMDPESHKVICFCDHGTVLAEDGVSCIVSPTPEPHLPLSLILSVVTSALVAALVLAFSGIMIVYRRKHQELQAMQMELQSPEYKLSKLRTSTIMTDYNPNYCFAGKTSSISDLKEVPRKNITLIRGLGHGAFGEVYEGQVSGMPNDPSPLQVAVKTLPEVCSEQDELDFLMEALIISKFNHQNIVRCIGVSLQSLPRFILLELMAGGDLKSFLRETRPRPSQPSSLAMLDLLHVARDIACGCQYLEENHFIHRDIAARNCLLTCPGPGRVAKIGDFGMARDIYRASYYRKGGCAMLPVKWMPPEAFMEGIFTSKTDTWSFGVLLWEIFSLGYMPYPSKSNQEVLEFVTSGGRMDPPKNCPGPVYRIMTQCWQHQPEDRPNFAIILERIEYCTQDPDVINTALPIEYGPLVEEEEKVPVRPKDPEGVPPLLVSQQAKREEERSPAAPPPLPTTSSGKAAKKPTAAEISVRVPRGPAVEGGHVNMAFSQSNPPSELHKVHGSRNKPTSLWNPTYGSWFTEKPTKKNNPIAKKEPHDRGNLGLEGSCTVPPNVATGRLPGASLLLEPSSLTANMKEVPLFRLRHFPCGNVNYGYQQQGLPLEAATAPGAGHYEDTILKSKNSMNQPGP

Molecule: COCCN1CCc2ccc(Nc3ncc(Cl)c(Nc4c(F)cccc4C(=O)NCCC#N)n3)cc2CC1 [Example 1043, 2-{5-Chloro-2-[3-(2-methoxy-ethyl)-2,3,4,5-tetrahydro-1H-benzo[d]azepin-7-ylamino]-pyrimidin-4-ylamino}-N-(2-cyano-ethyl)-3-fluoro-benzamide]
IC50 [1, 3]: 100 to 1000 nM
IC50 [2, 4]: < 100 nM

Molecule: COCCN1CCc2ccc(Nc3ncc(Cl)c(Nc4ccc(N5CCN(C(C)C)CC5)c5c4C(=O)N(C)C5)n3)cc2CC1 [Example 950, 7-{5-Chloro-2-[3-(2-methoxy-ethyl)-2,3,4,5-tetrahydro-1H-3-benzazepin-7-ylamino]-pyrimidin-4-ylamino}-4-(4-isopropyl-piperazin-1-yl)-2-methyl-2,3-dihydro-isoindol-1-one]
IC50 [1, 5]: < 100 nM
IC50 [2, 6]: 100 to 1000 nM

Molecule: COc1ccc2c(c1Nc1ncc(Cl)c(Nc3ccccc3-n3cccn3)n1)CCC(N1CCOCC1)CC2 (stereo not drawn) [Example 1071, 5-Chloro-N*2*-(2-methoxy-7-morpholin-4-yl-6,7,8,9-tetrahydro-5H-benzocyclohepten-1-yl)-N*4*-(2-pyrazol-1-yl-phenyl)-pyrimidine-2,4-diamine]
IC50 [1, 3]: 100 to 1000 nM
IC50 [2, 4]: > 10000 nM

Molecule: C#CCN1CCN(C)c2cc(Nc3ncc(Cl)c(N[C@@H]4CCCC[C@H]4NS(C)(=O)=O)n3)ccc2C1 [Example 480, N-{(1R,2R)-2-[5-Chloro-2-(1-methyl-4-prop-2-ynyl-2,3,4,5-tetrahydro-1H-benzo[e][1,4]diazepin-8-ylamino)-pyrimidin-4-ylamino]-cyclohexyl}-methanesulfonamide]
IC50 [1, 9]: < 100 nM
IC50 [2, 10]: 1000 to 10000 nM

Molecule: 5-Chloro-N*4*-(2-ethyl-4-morpholin-4-yl-phenyl)-N*2*-[7-(2,2,2-trifluoro-ethylamino)-6,7,8,9-tetrahydro-5H-benzocyclohepten-2-yl]-pyrimidine-2,4-diamine [Example 652]
IC50 [1, 5]: < 100 nM
IC50 [2, 6]: > 10000 nM

Molecule: CCN1CCN(CC)c2cc(Nc3ncc(Cl)c(N[C@@H]4CCCC[C@H]4NS(C)(=O)=O)n3)ccc2C1 [Example 426, N-{(1R,2R)-2-[5-Chloro-2-(1,4-diethyl-2,3,4,5-tetrahydro-1H-benzo[e][1,4]diazepin-8-ylamino)-pyrimidin-4-ylamino]-cyclohexyl}-methanesulfonamide]
IC50 [1, 9]: < 100 nM
IC50 [2, 10]: 100 to 1000 nM

Molecule: CC(=O)N1CC2CCC(C1)c1cc(Nc3ncc(Cl)c(N[C@@H]4CCCC[C@H]4NS(C)(=O)=O)n3)ccc12 (stereo partly drawn) [Example 295, N-{(1R,2R)-2-[2-(10-Acetyl-10-aza-tricyclo[6.3.2.0*2,7*]trideca-2,4,6-trien-4-ylamino)-5-chloro-pyrimidin-4-ylamino]-cyclohexyl}-methanesulfonamide]
IC50 [1, 9]: < 100 nM
IC50 [2, 10]: 100 to 1000 nM

Molecule: COc1cc2c(cc1Nc1ncc(Cl)c(Nc3ccccc3S(=O)(=O)N3CC[C@H](C)C3)n1)CCN(CCO)CC2 [Example 855, 2-(7-{5-Chloro-4-[2-((S)-3-methyl-pyrrolidine-1-sulfonyl)-phenylamino]-pyrimidin-2-ylamino}-8-methoxy-1,2,4,5-tetrahydro-benzo[d]azepin-3-yl)-ethanol]
IC50 [1, 5]: < 100 nM
IC50 [2, 6]: 100 to 1000 nM

Molecule: COCCN(C)C1CCc2ccc(Nc3ncc(Cl)c(N[C@H]4[C@@H](C(N)=O)[C@@H]5C=C[C@H]4C5)n3)c(OC)c2CC1 (single isomer, unassigned) [Example 701]
IC50 [1, 5]: < 100 nM
IC50 [2, 6]: > 10000 nM

Molecule: CNC(=O)c1ccc(Nc2nc(Nc3cc4c(cc3OC)CCN(Cc3ncco3)CC4)ncc2Cl)c(OC)c1 [Example 1182, 4-[5-Chloro-2-(8-methoxy-3-oxazol-2-ylmethyl-2,3,4,5-tetrahydro-1H-benzo[d]azepin-7-ylamino)-pyrimidin-4-ylamino]-3-methoxy-N-methyl-benzamide]
IC50 [1, 3]: < 100 nM
IC50 [2, 4]: > 10000 nM

Molecule: 2-[2-(8-Amino-4H,6H-3,5,10b-triaza-benzo[e]azulen-5-yl)-5-chloro-pyrimidin-4-ylamino]-3-fluoro-N-methyl-benzamide [Example 1467]
IC50 [1, 7]: 1000 to 10000 nM
IC50 [2, 8]: 1000 to 10000 nM

Molecule: COc1cc2c(cc1Nc1ncc(Cl)c(Nc3ccc(N4CCN(C)CC4)c(C)c3)n1)CCN(CC(C)(F)F)CC2 [Example 779, 5-Chloro-N*2*-[3-(2,2-difluoro-propyl)-8-methoxy-2,3,4,5-tetrahydro-1H-benzo[d]azepin-7-yl]-N*4*-[3-methyl-4-(4-methyl-piperazin-1-yl)-phenyl]-pyrimidine-2,4-diamine]
IC50 [1, 5]: < 100 nM
IC50 [2, 6]: > 10000 nM

Molecule: COc1cc2c(cc1Nc1ncc(Cl)c(Nc3ccc(N4CCOCC4)c(OC)c3)n1)CCN(CC(=O)N(C)C)CC2 [Example 803, 2-{7-[5-Chloro-4-(3-methoxy-4-morpholin-4-yl-phenylamino)-pyrimidin-2-ylamino]-8-methoxy-1,2,4,5-tetrahydro-benzo[d]azepin-3-yl}-N,N-dimethyl-acetamide]
IC50 [1, 5]: < 100 nM
IC50 [2, 6]: > 10000 nM

Molecule: COc1cc2c(cc1Nc1ncc(Cl)c(Nc3ccc(N4CCOCC4)cc3C)n1)CCN(CC(=O)N(C)C)CC2 [Example 801, 2-{7-[5-Chloro-4-(2-methyl-4-morpholin-4-yl-phenylamino)-pyrimidin-2-ylamino]-8-methoxy-1,2,4,5-tetrahydro-benzo[d]azepin-3-yl}-N,N-dimethyl-acetamide]
IC50 [1, 5]: < 100 nM
IC50 [2, 6]: > 10000 nM

The remaining lines, values ahead:

IC50 [1, 3]: 100 to 1000 nM
IC50 [2, 4]: 100 to 1000 nM
Molecule: CNC(=O)c1cccc(O)c1Nc1nc(Nc2ccc3c(c2)CCN(CCOC)CC3)ncc1Cl [Example 1227, 2-{5-Chloro-2-[3-(2-methoxy-ethyl)-2,3,4,5-tetrahydro-1H-3-benzazepin-7-ylamino]-pyrimidin-4-ylamino}-3-hydroxy-N-methyl-benzamide]

IC50 [1, 3]: 1000 to 10000 nM
IC50 [2, 4]: > 10000 nM
Molecule: COCCN1CCc2ccc(Nc3ncc(Cl)c(N[C@@H]4CCC[C@H](NS(C)(=O)=O)C4)n3)cc2CC1 (relative stereo) [Example 1380, rel-N-((1S,3R)-3-{5-Chloro-2-[3-(2-methoxy-ethyl)-2,3,4,5-tetrahydro-1H-benzo[d]azepin-7-ylamino]-pyrimidin-4-ylamino}-cyclohexyl)-methanesulfonamide]

IC50 [1, 3]: 100 to 1000 nM
IC50 [2, 4]: 100 to 1000 nM
Molecule: C#CCNC(=O)c1cccc(F)c1Nc1nc(Nc2ccc3c(c2)OCCCN3C(=O)OC(C)C)ncc1Cl [Example 1433, 3-[5-Chloro-4-(2-fluoro-6-prop-2-ynylcarbamoyl-phenylamino)-pyrimidin-2-ylamino]-7,8-dihydro-6H-5-oxa-9-aza-benzocycloheptene-9-carboxylic acid isopropyl ester]

IC50 [1, 7]: 100 to 1000 nM
IC50 [2, 8]: > 10000 nM
Molecule: Cc1cccc(C(N)=O)c1Nc1nc(Nc2ccc3c(c2)N(C(C)C)C(=O)CCC3)ncc1Cl [Example 1475, 2-[5-Chloro-2-(1-isopropyl-2-oxo-2,3,4,5-tetrahydro-1H-benzo[b]azepin-8-ylamino)-pyrimidin-4-ylamino]-3-methyl-benzamide]

IC50 [1, 7]: 100 to 1000 nM
IC50 [2, 8]: 1000 to 10000 nM
Molecule: CNC(=O)c1ccc2c(c1Nc1nc(Nc3ccc4c(c3)CCCC(=O)N4C)ncc1Cl)OCO2 [Example 1479, 4-[5-Chloro-2-(1-methyl-2-oxo-2,3,4,5-tetrahydro-1H-benzo[b]azepin-7-ylamino)-pyrimidin-4-ylamino]-benzo[1,3]dioxole-5-carboxylic acid methyl amide]

IC50 [1, 7]: 1000 to 10000 nM
IC50 [2, 8]: < 100 nM
Molecule: CNC(=O)c1cccc(F)c1Nc1nc(Nc2ccc3c(c2)CN(C)C(=O)CC3)ncc1Cl [Example 1806, 3-Fluoro-2-[5-chloro-2-(2-methyl-3-oxo-2,3,4,5-tetrahydro-1H-benzo[c]azepin-8-ylamino)-pyrimidin-4-ylamino]-N-methyl-benzamide]

IC50 [1, 3]: < 100 nM
IC50 [2, 4]: 1000 to 10000 nM
Molecule: COc1cc2c(cc1Nc1ncc(Cl)c(Nc3ccccc3S(=O)(=O)N3CC[C@H](O)C3)n1)CCN(CC(=O)N(C)C)CC2 [Example 1206, 2-(7-{5-Chloro-4-[2-((S)-3-hydroxy-pyrrolidine-1-sulfonyl)-phenylamino]-pyrimidin-2-ylamino}-8-methoxy-1,2,4,5-tetrahydro-benzo[d]azepin-3-yl)-N,N-dimethyl-acetamide]

IC50 [1, 3]: < 100 nM
IC50 [2, 4]: > 10000 nM
Molecule: CCN1C(=O)CCCc2cc(Nc3ncc(Cl)c(Nc4ccc(N(C)C)cc4OC)n3)c(OC)cc21 [Example 1340, 7-[5-Chloro-4-(4-dimethylamino-2-methoxy-phenylamino)-pyrimidin-2-ylamino]-1-ethyl-8-methoxy-1,3,4,5-tetrahydro-benzo[b]azepin-2-one]

IC50 [1, 7]: 1000 to 10000 nM
IC50 [2, 8]: 100 to 1000 nM
Molecule: CNC(=O)c1ccsc1Nc1nc(Nc2ccc3c(c2)NC(=O)CCC3)ncc1Cl [Example 1485, 2-[5-Chloro-2-(2-oxo-2,3,4,5-tetrahydro-1H-benzo[b]azepin-8-ylamino)-pyrimidin-4-ylamino]-thiophene-3-carboxylic acid methylamide]

IC50 [1, 3]: < 100 nM
IC50 [2, 4]: 100 to 1000 nM
Molecule: CNC(=O)c1ccc([N+](=O)[O-])cc1Nc1nc(Nc2ccc3c(c2)C(C)(C)CCC(=O)N3)ncc1Cl [Example 1235, 2-[5-Chloro-2-(5,5-dimethyl-2-oxo-2,3,4,5-tetrahydro-1H-1-benzazepin-7-ylamino)-pyrimidin-4-ylamino]-N-methyl-4-nitro-benzamide]
